Results published in patent US4452851A, “Cephem compounds” (Fujisawa Pharmaceutical Co., Ltd., priority 1981, dated 1984).
In brackets after ≈: the same amount, converted by molar mass.

Key:
Proteus mirabilis 18 = assay: Minimal inhibitory concentration, two-fold agar-plate dilution method; format: cell-based; conditions: HI-agar, 37° C., 20 hours
Description: (§1) In vitro antibacterial activity was determined by the two-fold agar-plate dilution method as described below. One loopful of an overnight culture of each test strain in Trypticase-soy broth (10^8 viable cells per ml) was streaked on heart infusion agar (HI-agar) containing graded concentrations of representative test compound, and the minimal inhibitory concentration (MIC) was expressed in terms of μg/ml after incubation at 37° C. for 20 hours.

[1] = test system: Proteus vulgaris IAM-1025; assay: as above; format: cell-based; conditions: IAM1025, HI-agar, 37° C., 20 hours
Description: as §1

[2] = test system: Escherichia coli NIHJ JC-2; assay: as above; format: cell-based; conditions: NIHJJC2, HI-agar, 37° C., 20 hours
Description: as §1

Klebsiella pneumoniae 20 = assay: as above; format: cell-based; conditions: HI-agar, 37° C., 20 hours
Description: as §1

Escherichia coli 31 = assay: as above; format: cell-based; conditions: HI-agar, 37° C., 20 hours
Description: as §1

in vivo = conditions: rat, po, 100 mg/kg
Description: Rats anesthetized with pentobarbital were fixed in supine position, and a polyethylene cannula was inserted into the bile duct. Bile samples were collected at 0 to 3, 3 to 6, and 6 to 24 hours after oral administration of 100 mg of the test drugs per kg. The antibiotic levels in the bile samples were assyed with the standard solutions prepared with M/15 phosphate buffer (pH 7.0) and the biliary excretion in 24 hours were calculated.

[3] = Urinary excretion in rats after oral administration; format: in vivo; conditions: rat, 100 mg/kg, 100 mg per Kg, urine 0 to 24 hours, bioassay
Description: The concentration of antibiotic in urine samples were bioassayed with the standard buffer at pH 7.0, and the urinary excretion in 24 hours were calculated.

Structure (SMILES)	MIC (Proteus mirabilis 18) [µg/mL]	MIC [1] [µg/mL]	MIC [2] [µg/mL]	MIC (Klebsiella pneumoniae 20) [µg/mL]	MIC (Escherichia coli 31) [µg/mL]	dose excreted at 24 h (in vivo) [%]	dose excreted at 24 h [3] [%]
CCSC1=C(C(=O)O)N2C(=O)C(NC(=O)/C(=N\OCC(=O)O)c3nsc(N)n3)C2SC1 (stereo not drawn) [(4), 7-[2-(5-amino-1,2,4-thiadiazol-3-yl)-2-carboxymethoxyiminoacetamido]-3-ethylthio-3-cephem-4-carboxylic acid (syn isomer)]	0.2 (≈ 0.409 µM)	0.78 (≈ 1.6 µM)	1.56 (≈ 3.19 µM)	0.39 (≈ 0.798 µM)	0.2 (≈ 0.409 µM)	–	–
CSC1=C(C(=O)O)N2C(=O)C(NC(=O)/C(=N\OCC(=O)O)c3cscn3)C2SC1 (stereo not drawn) [Test Compound (3), 7-[2-(4-thiazolyl)-2-carboxymethoxyiminoacetamido]-3-methylthio-3-cephem-4-carboxylic acid (syn isomer)]	–	–	–	–	–	25.5	48.6

Other lines, results leading:

MIC (Proteus mirabilis 18) [µg/mL]	MIC [1] [µg/mL]	MIC [2] [µg/mL]	MIC (Klebsiella pneumoniae 20) [µg/mL]	MIC (Escherichia coli 31) [µg/mL]	dose excreted at 24 h (in vivo) [%]	dose excreted at 24 h [3] [%]	Structure (SMILES)
0.05 (≈ 0.106 µM)	0.39 (≈ 0.824 µM)	1.56 (≈ 3.29 µM)	0.1 (≈ 0.211 µM)	0.2 (≈ 0.422 µM)	41.1	51.6	CSC1=C(C(=O)O)N2C(=O)C(NC(=O)/C(=N\OCC(=O)O)c3csc(N)n3)C2SC1 (stereo not drawn) [Compound (1), 7-[2-(2-aminothiazol-4-yl)-2-carboxymethoxyiminoacetamido]-3-methylthio-3-cephem-4-carboxylic acid (syn isomer)]
0.025 (≈ 0.0513 µM)	0.78 (≈ 1.6 µM)	3.13 (≈ 6.42 µM)	0.1 (≈ 0.205 µM)	0.2 (≈ 0.41 µM)	32.2	19.4	CCSC1=C(C(=O)O)N2C(=O)C(NC(=O)/C(=N\OCC(=O)O)c3csc(N)n3)C2SC1 (stereo not drawn) [Compound (2), 7-[2-(2-aminothiazol-4-yl)-2-carboxymethoxyiminoacetamido]-3-ethylthio-3-cephem-4-carboxylic acid (syn isomer)]
0.05 (≈ 0.0958 µM)	0.1 (≈ 0.192 µM)	1.56 (≈ 2.99 µM)	0.2 (≈ 0.383 µM)	0.2 (≈ 0.383 µM)	–	–	CCSC1=C(C(=O)O)N2C(=O)C(NC(=O)/C(=N\OCC(=O)O)c3nc(N)sc3Cl)C2SC1 (stereo not drawn) [Compound (3), 7-[2-(2-amino-5-chlorothiazol-4-yl)-2-carboxymethoxyiminoacetamido]-3-ethylthio-3-cephem-4-carboxylic acid (syn isomer)]
